# Data reported in US7494714B2, “Surfaces that resist the adsorption of biological species” (President & Fellows of Harvard College, priority 2000, dated 2009).
# Read-outs that look alike come from different tables or passages of the source. Where a SMILES comes first, the peptide text is derived from it. [ ]: non-standard residue; d: D form. Sar = CNCC(=O)O
# What was measured:
# [1] = biological target: T1, fibrinogen (Bos taurus, UniProt P02672+P02676+P12799); experiment: SPR adsorption of fibrinogen to SAMs / grafted polymer films; format: binding, bovine; details: for % ML 30 min / dR/dt on / % ML 3 min: fibrinogen; for % ML 30 min / dR/dt on / % Fib off: single-component SAMs (a) and mixed SAMs (b); for % ML 3 min: single-component SAMs (a, RSH) and mixed SAMs (b, RNH2)
# T1 sequence (P02672 20-615): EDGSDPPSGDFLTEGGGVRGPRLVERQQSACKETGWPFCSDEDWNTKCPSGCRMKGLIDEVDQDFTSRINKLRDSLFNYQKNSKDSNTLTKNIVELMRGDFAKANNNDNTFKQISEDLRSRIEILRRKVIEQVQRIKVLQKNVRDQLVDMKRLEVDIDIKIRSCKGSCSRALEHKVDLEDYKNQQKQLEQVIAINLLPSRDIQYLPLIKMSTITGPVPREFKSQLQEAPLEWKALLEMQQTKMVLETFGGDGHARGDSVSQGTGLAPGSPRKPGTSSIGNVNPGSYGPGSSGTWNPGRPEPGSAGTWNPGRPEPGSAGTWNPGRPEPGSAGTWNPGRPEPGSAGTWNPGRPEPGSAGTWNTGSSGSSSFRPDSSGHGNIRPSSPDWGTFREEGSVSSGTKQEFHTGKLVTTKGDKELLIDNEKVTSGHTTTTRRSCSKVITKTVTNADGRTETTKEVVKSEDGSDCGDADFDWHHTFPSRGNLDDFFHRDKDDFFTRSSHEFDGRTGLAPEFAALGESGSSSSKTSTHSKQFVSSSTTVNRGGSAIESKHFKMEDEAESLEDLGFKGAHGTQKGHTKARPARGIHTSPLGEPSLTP
# T1 sequence (P02676 1-468): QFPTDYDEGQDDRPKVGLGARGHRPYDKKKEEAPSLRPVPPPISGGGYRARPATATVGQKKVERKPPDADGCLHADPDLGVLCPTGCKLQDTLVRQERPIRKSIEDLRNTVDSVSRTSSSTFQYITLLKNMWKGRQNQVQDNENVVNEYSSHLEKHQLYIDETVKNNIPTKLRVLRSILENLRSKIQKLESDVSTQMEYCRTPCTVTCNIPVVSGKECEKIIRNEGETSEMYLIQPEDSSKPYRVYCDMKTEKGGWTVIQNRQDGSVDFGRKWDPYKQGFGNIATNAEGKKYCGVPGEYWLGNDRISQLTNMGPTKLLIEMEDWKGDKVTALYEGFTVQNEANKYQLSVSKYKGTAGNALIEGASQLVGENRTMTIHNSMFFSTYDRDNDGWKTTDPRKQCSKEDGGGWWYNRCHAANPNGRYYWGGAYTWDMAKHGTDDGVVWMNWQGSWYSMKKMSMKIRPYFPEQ
# T1 sequence (P12799 25-444): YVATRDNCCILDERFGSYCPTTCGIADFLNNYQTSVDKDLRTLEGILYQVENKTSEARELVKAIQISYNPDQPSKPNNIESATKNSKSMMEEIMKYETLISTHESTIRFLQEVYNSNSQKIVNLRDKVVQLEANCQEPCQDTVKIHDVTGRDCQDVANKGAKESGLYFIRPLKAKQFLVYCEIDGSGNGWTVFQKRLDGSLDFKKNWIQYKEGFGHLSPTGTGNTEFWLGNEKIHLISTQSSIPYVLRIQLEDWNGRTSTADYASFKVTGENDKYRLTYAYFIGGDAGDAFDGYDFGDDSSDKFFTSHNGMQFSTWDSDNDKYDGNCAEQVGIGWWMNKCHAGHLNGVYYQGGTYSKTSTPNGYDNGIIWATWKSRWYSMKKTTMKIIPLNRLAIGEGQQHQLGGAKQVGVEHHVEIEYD
# [2] = biological target: lysozyme (Gallus gallus, UniProt P00698); experiment: SPR adsorption of lysozyme to SAMs / grafted polymer films; format: binding; details: for % ML 3 min / dR/dt on: lysozyme; for % ML 3 min / dR/dt on / % Lys off: single-component SAMs (a) and mixed SAMs (b)
# Chain of lysozyme (P00698 19-147): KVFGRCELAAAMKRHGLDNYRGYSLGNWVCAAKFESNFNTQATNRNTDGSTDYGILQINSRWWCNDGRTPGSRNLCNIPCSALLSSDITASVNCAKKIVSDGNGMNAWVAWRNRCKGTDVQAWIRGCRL
# [3] = Contact angle of deionized water under cyclooctane; format: physicochemical
# [4] = mixed SAM —CONRR′/—CO2H, 1 mg/mL fibrinogen flowed 3 min, relative to —CONH(CH2)10CH3/—CO2H SAM
# [5] = mixed SAM —CONRR′/—CO2H, 1 mg/mL fibrinogen flowed 30 min
# [6] = mixed SAM —CONRR′/—CO2H, 1 mg/mL lysozyme flowed 3 min
# [7] = mixed SAM —CONRR′/—CO2H, 1 mg/mL lysozyme flowed 30 min
Molecule,% Fiboff (percent decrease in adsorbed protein during 10 minute PBS wash) ([1]; mixed SAM —CONRR′/—CO2H) [%],dR/dton fibrinogen (maximum initial rate of adsorption) ([1]; mixed SAM —CONRR′/—CO2H) [RU/sec],"% MLfib 3 min [1, 4] [%]","% MLfib 30 min [1, 5] [%]",% Lysoff (percent decrease in adsorbed protein during 10 minute PBS wash) ([2]; mixed SAM —CONRR′/—CO2H) [%],dR/dton lysozyme (maximum initial rate of adsorption) ([2]; mixed SAM —CONRR′/—CO2H) [RU/sec],"% MLlys 3 min [2, 6] [%]","% MLlys 30 min [2, 7] [%]",θco sessile ([3]; mixed SAM) [degrees],also measured
C[N+](C)(C)CCN.[Cl-],6.2 ± 1,300 ± 200,17 ± 2,25 ± 4,95 ± 7,140 ± 40,3.5 ± 0.2,3.9 ± 0.7,31,
CN1CCNCC1,1.0 ± 0.2,50 ± 30,8.2 ± 1,16 ± 0.2,170 ± 20,60 ± 40,1.1 ± 0.2,1.0 ± 0.4,49,
O=CN1CCNCC1,10 ± 2,200 ± 50,23 ± 1,39 ± 1,73 ± 15,160 ± 50,8 ± 0.3,12 ± 0.3,38,
CC(=O)N1CCNCC1,12 ± 2,120 ± 70,17 ± 1,38 ± 0.2,400 ± 5,440 ± 80,7.8 ± 1,6.5 ± 0.2,45,% ML 30 min [1]: 38 ±0.2%; dR/dt on [1]: 120 ±70 RU/sec; % ML 3 min [1]: 17 ±1%; % Fib off [1]: 12 ±2%; % ML 3 min ([2]; footnote b (30 minutes)): 7 ±0.2%; % ML 3 min [2]: 8 ±1%; dR/dt on [2]: 440 ±80 RU/sec; % Lys off [2]: 400 ±5%; θco sessile [3]: 45 degrees
CNCCN(C)C(C)=O,15 ± 1,40 ± 10,2.1 ± 0.3,12 ± 3,330 ± 15,170 ± 30,0.5 ± 0.2,3.8 ± 2,46,
CC(=O)CCN,16 ± 1,1400 ± 260,66 ± 0.3,74 ± 0.3,150 ± 10,2700 ± 400,31 ± 6,71 ± 5,70,
CNCCN(C)C(=O)OC,20 ± 2,330 ± 70,26 ± 0.2,58 ± 0.3,150 ± 2,670 ± 50,4.3 ± 0.2,43 ± 3,70,
COC[C@H](OC)[C@H](OC)[C@H](OC)[C@@H](CN(C)C(=O)CCCCCCCCCCS)OC [Entry 4a],,,,,,,,,,% ML 30 min [1]: 0.7 ±0.1%; dR/dt on [1]: 30 ±14 RU/sec; % ML 3 min [1]: 0.2 ±0.1%; % Fib off [1]: 66 ±5%; % ML 3 min ([2]; footnote b (30 minutes)): 0.5 ±0.2%; % ML 3 min [2]: 0.5 ±0.0%; dR/dt on [2]: 29 ±20 RU/sec; % Lys off [2]: 7 ±0%
CN(C)C(=O)CNC(=O)CNC(=O)CN [H2N(Gly)3N(CH3)2] (H-Gly-Gly-Gly-NMe2),21 ± 0.7,55 ± 40,8 ± 1,22 ± 0.4,630 ± 4,620 ± 130,2.1 ± 1.5,8.8 ± 0.5,,
CNCC(=O)N(C)CC(=O)N(C)CC(=O)N(C)C [H(CH3)N(Sar)3N(CH3)2] (H-[Sar]-[Sar]-[Sar]-NMe2),,60 ± 10,0.7 ± 0.1,2.0 ± 0.1,,70 ± 30,0.6 ± 0.1,1.1 ± 0.3,,% ML 30 min [1]: 2.0%; dR/dt on [1]: 60 RU/sec; % ML 3 min [1]: 0.7%; % ML 3 min ([2]; footnote b (30 minutes)): 1.1%; % ML 3 min [2]: 0.6%; dR/dt on [2]: 70 RU/sec
CNCC(=O)N(C)CC(=O)N(C)CC(=O)N(C)CC(=O)N(C)C [H(CH3)N(Sar)4N(CH3)2] (H-[Sar][Sar][Sar][Sar]-NMe2),,70 ± 20,0.5 ± 0.0,1.7 ± 0.2,70 ± 30,80 ± 40,0.8 ± 0.1,1.5 ± 0.7,,
CNCC(=O)N(C)CC(=O)N(C)CC(=O)N(C)CC(=O)N(C)CC(=O)N(C)C [H(CH3)N(Sar)5N(CH3)2],,50 ± 10,0.6 ± 0.3,1.3 ± 0.1,14 ± 4,50 ± 20,0.8 ± 0.7,1.0 ± 0.2,,
N#CCCNCCC#N [HN(CH2CH2CN)2],20 ± 0.7,590 ± 240,43 ± 1.0,58 ± 1.6,290 ± 8,2700 ± 160,17 ± 1.0,40 ± 2.0,,
N#CCNCC#N [HN(CH2CN)2],7.9 ± 0.9,2200 ± 500,54 ± 3.8,73 ± 3,110 ± 1,2200 ± 500,36 ± 0.5,92 ± 0.3,,
CNC [HN(CH3)2],,,,,,,,,,% Fiboff (percent decrease in adsorbed protein during 10 minute PBS wash) [1]: 24 ± 0.1%; % MLfib 3 min [1]: 26 ± 6%; % MLfib 30 min [1]: 54 ± 0.8%; dR/dton fibrinogen (maximum initial rate of adsorption) [1]: 160 ± 30 RU/sec; % Lysoff (percent decrease in adsorbed protein during 10 minute PBS wash) [2]: 120 ± 1%; % MLlys 3 min [2]: 43 ± 16%; % MLlys 30 min [2]: 80 ± 3%; dR/dton lysozyme (maximum initial rate of adsorption) [2]: 2400 ± 260 RU/sec
(CH3)2N(Sar)3-NHCO(CH2)15SH [Entry 5a],,,,,,,,,,% ML 30 min [1]: 2.0%; dR/dt on [1]: 24 RU/sec; % ML 3 min [1]: 0.7%; % Fib off [1]: 5.7%; % ML 3 min ([2]; footnote b (30 minutes)): 2.0%; % ML 3 min [2]: 1.8%; dR/dt on [2]: 33 RU/sec; % Lys off [2]: 18%
